Assay results: PMC8294803, “A Roadmap to the Structure-Related Metabolism Pathways of Per- and Polyfluoroalkyl Substances in the Early Life Stages of Zebrafish (Danio rerio)” (Environmental Health Perspectives, 2021)
Like-named read-outs stand apart in the source and are kept apart here.

Test system: zebrafish embryos
[1] = 5μM through 120 hpf, malformation rate

Structure (SMILES) | pericardial oedemata, Mean [1] | spinal curvature, Mean [1] | tail dysplasia, Mean [1] | Mortality (%) (5 µM, exposure through 120 hpf) | Mortality (%) (in vivo) | pericardial oedemata, Mean (in vivo) | spinal curvature, Mean (in vivo) | tail dysplasia, Mean (in vivo)
CC=CC(F)(F)C(F)(F)C(F)(F)F [compound 22, 1-Propenylperfluoropropane] | 0.00% | 0.00% | 0.00% | 3.3% | – | – | – | –
CCOC(F)(F)C(F)(F)C(F)(F)C(F)(F)F [compound 65, Ethyl perfluorobutyl ether] | 0.00% | 0.00% | 0.00% | 0% | – | – | – | –
C=CCOC(F)(C(F)(F)F)C(F)(F)F [compound 18, Allyl perfluoroisopropyl ether] | 0.00% | 0.00% | 0.00% | 3.3% | – | – | – | –
C=CC(F)(F)C(F)(F)C(F)(F)C(F)(F)F [compound 59, 1H,1H,2H-Perfluoro-1-hexene] | 0.00% | 1.11% | 0.00% | 4.4% | – | – | – | –
O=C(O)C(F)(OC(F)(F)C(F)(F)C(F)(F)F)C(F)(F)F (stereo not shown) [compound 37, Perfluoro-2-methyl-3-oxahexanoic acid] | 2.22% | 0.00% | 1.11% | 1.1% | – | – | – | –
C=CC(F)(C(F)(F)F)C(F)(F)C(F)(F)F (stereo not shown) [compound 25, 2-Vinylperfluorobutane] | 0.00% | 0.00% | 0.00% | 1.1% | – | – | – | –
OCC(F)(F)C(F)(F)C(F)(F)F [compound 11, Heptafluorobutanol] | 4.44% | 2.22% | 0.00% | 1.1% | – | – | – | –
CCN(CCO)S(=O)(=O)C(F)(F)C(F)(F)C(F)(F)C(F)(F)C(F)(F)C(F)(F)C(F)(F)C(F)(F)F [compound 9, N-Ethyl-N-(2-hydroxyethyl)perfluorooctanesulfonamide] | 1.11% | 0.00% | 0.00% | 1.1% | – | – | – | –
CC(O)C(F)(F)C(F)(F)F (stereo not shown) [compound 62, 1-Pentafluoroethylethanol] | 1.11% | 0.00% | 1.11% | 6.7% | – | – | – | –
O=CC(F)(F)C(F)(F)C(F)(F)C(F)F [compound 72, 5H-Perfluoropentanal] | 0.00% | 0.00% | 0.00% | 3.3% | – | – | – | –
FC(F)(F)C(F)(F)CNCC(F)(F)C(F)(F)F [compound 45, Bis(1H,1H-perfluoropropyl)amine] | 1.11% | 0.00% | 1.11% | 2.2% | – | – | – | –
NC(O)(C(F)(F)F)C(F)(F)F [compound 33, 2-Aminohexafluoropropan-2-ol] | 0.00% | 0.00% | 0.00% | 7.8% | – | – | – | –
O=S(=O)(F)C(F)(F)C(F)(F)C(F)(F)C(F)(F)F [compound 8, Perfluorobutanesulfonyl fluoride] | 0.00% | 1.11% | 3.33% | 2.2% | – | – | – | –
O=C(F)C(F)(F)C(F)(F)C(F)(F)C(F)F [compound 51, 5H-Octafluoropentanoyl fluoride] | – | – | – | – | 0 | 1.11% | 0.00% | 3.33%
OC(O)(C(F)C(O)(O)C(F)(F)F)C(F)(F)F [compound 66, 3H-Perfluoro-2,2,4,4-tetrahydroxypentane] | 0.00% | 0.00% | 0.00% | 1.1% | – | – | – | –
FCOC(C(F)(F)F)C(F)(F)F [compound 3, Sevoflurane, reference compound] | 0.00% | 2.22% | 0.00% | 1.1% | – | – | – | –

Structure (SMILES) | pericardial oedemata, Mean [1] | spinal curvature, Mean [1] | tail dysplasia, Mean [1] | Mortality (%) (5 µM, exposure through 120 hpf) | Mortality (%) (in vivo) | pericardial oedemata, Mean (in vivo) | spinal curvature, Mean (in vivo) | tail dysplasia, Mean (in vivo)
O=C(OC(=O)C(F)(F)C(F)(F)F)C(F)(F)C(F)(F)F [compound 43, Pentafluoropropanoic anhydride] | 4.44% | 0.00% | 4.44% | 5.6% | – | – | – | –
O=C(F)C(F)(F)C(F)(F)C(F)(F)C(=O)F [compound 63, Perfluoroglutaryl difluoride] | 0.00% | 0.00% | 0.00% | 5.6% | – | – | – | –
FC(F)OCC(F)(F)C(F)(F)F [compound 52, Difluoromethyl 1H,1H-perfluoropropyl] | 1.11% | 0.00% | 0.00% | 2.2% | – | – | – | –
NCC(F)(F)C(F)(F)C(F)(F)C(F)(F)F [compound 68, 1H,1H-Perfluoropentylamine] | 0.00% | 0.00% | 0.00% | 1.1% | – | – | – | –
OCCC(F)(F)C(F)(F)C(F)(F)C(F)(F)C(F)(F)C(F)(F)C(F)(F)C(F)(F)F [compound 64, 8:2 Fluorotelomer alcohol] | 0.00% | 2.22% | 0.00% | 3.3% | – | – | – | –
CC(F)(F)CC(F)(F)F [compound 29, 1,1,1,3,3-Pentafluorobutane] | 0.00% | 0.00% | 0.00% | 3.3% | – | – | – | –
CC(=O)C(F)(F)C(F)(F)F [compound 55, Methyl perfluoroethyl ketone] | 1.11% | 2.22% | 0.00% | 2.2% | – | – | – | –
NC(C(F)(F)F)C(F)(F)F [compound 71, 2-Amino-2H-perfluoropropane] | 0.00% | 0.00% | 0.00% | 3.3% | – | – | – | –
FC(F)(F)COCC(F)(F)F [compound 27, Flurothyl, reference compound] | 2.22% | 0.00% | 0.00% | 1.1% | – | – | – | –
FC(F)=C(F)OC(F)(F)C(F)(F)C(F)(F)F [compound 53, Heptafluoropropyl trifluorovinyl ether] | 0.00% | 1.11% | 0.00% | 2.2% | – | – | – | –
FC(F)(F)COC(OCC(F)(F)F)OCC(F)(F)F [compound 1, tris(Trifluoroethoxy)methane] | 2.22% | 2.22% | 2.22% | 0% | – | – | – | –
COC(F)(F)C(F)(C(F)(F)F)C(F)(F)F [compound 44, Perfluoroisobutyl methyl ether] | – | – | – | – | 1.1 | 1.11% | 1.11% | 0.00%
O=CC(F)(F)C(F)(F)C(F)(F)F [compound 42, Perfluorobutyraldehyde] | 2.22% | 2.22% | 0.00% | 0% | – | – | – | –
OCCC(F)(F)C(F)(F)C(F)(F)C(F)(F)F [compound 41, 4:2 Fluorotelomer alcohol] | 3.33% | 0.00% | 0.00% | 0% | – | – | – | –
FC(F)=C(F)C(F)(F)C(F)(F)C(F)(F)C(F)F [compound 69, 6H-Perfluorohex-1-ene] | 0.00% | 0.00% | 0.00% | 0% | – | – | – | –
